Here are results for 6 compounds from ChEMBL document CHEMBL4819026, “4-Oxoquinolines and monoamine oxidase: When tautomerism matters” (Eur J Med Chem, 2021).

The structures appear in SMILES notation. A value given as a limit tells only on which side of the number the result lay.

System in the first data set: not listed separately
Briefly: Cytotoxicity against differentiated human SH-SY5Y cells assessed as cell viability at 10 uM after 24 hrs by resazurin reduction assay relative to control. Type of data set: cell-based. To be noted: read-out: Activity.
`Cn1cc(C(=O)Nc2ccc(Cl)c(Cl)c2)c(=O)c2ccccc21`: the viability at 24 h, 10 µM was over 90%.
On the same count and under the same terms, under `Cn1cc(C(=O)Nc2cccc(Cl)c2)c(=O)c2ccccc21` stands over 90%.

The subject of another data set is SH-SY5Y. Briefly: Cytotoxicity against differentiated human SH-SY5Y cells assessed as cell viability at 1 to 10 uM after 24 hrs by SRB assay relative to control. Type of data set: cell-based. Conditions: dose 1-10 µM. (Sulforhodamine B stains cellular protein and so reports cell mass.)
Turning to `Cn1cc(C(=O)Nc2ccc(Cl)c(Cl)c2)c(=O)c2ccccc21`, the Activity result was “Non-Toxic”.
Turning to `Cn1cc(C(=O)Nc2cccc(Cl)c2)c(=O)c2ccccc21`, the Activity entry was “Non-Toxic”.
For `O=C(Nc1ccc(Cl)c(Cl)c1)c1c[nH]c2ccccc2c1=O`, the Activity entry was “Non-Toxic”.
In the case of `Cc1ccc(NC(=O)c2cn(C)c3ccccc3c2=O)cc1C`, the Activity entry is “Non-Toxic”.

The target in the next data set is T1, Amine oxidase [flavin-containing] B (Homo sapiens, UniProt P27338).
T1 sequence (P27338 whole entry): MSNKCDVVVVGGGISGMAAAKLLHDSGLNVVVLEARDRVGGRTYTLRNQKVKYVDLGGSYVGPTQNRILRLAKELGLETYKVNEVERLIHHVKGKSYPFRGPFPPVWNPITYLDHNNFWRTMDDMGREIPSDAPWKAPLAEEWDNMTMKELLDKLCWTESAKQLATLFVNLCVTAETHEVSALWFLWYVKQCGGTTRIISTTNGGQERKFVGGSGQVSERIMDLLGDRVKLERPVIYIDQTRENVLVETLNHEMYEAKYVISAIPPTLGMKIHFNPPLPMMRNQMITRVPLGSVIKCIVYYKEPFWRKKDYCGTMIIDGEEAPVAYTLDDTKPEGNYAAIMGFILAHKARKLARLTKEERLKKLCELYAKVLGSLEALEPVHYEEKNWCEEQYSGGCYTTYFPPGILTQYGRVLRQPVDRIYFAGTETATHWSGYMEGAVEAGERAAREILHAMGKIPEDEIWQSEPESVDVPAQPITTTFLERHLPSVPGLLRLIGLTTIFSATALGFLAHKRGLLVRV
Briefly: Inhibition of recombinant human MAOB using kynuramine as substrate at 10 uM measured for 30 mins by fluorescence spectrophotometric assay relative to control. To be noted: 0.5 h.
`Cc1ccc(NC(=O)c2c[nH]c3ccccc3c2=O)cc1C`: the inhibition at 10 µM is 35%.
For the compound `O=C(Nc1cccc(Cl)c1)c1c[nH]c2ccccc2c1=O`, the inhibition at 10 µM was 40%.

The next data set is filed under the species Homo sapiens. Briefly: Selectivity index, ratio of IC50 for inhibition of human MAOA to IC50 for inhibition of human MAOB.
Conditions: not given
`Cn1cc(C(=O)Nc2ccc(Cl)c(Cl)c2)c(=O)c2ccccc21`: the Ratio IC50 is over 1890.
In the case of `Cn1cc(C(=O)Nc2cccc(Cl)c2)c(=O)c2ccccc21`, the Ratio IC50 turned out to be 258.
Still for that read-out and setting: under `O=C(Nc1ccc(Cl)c(Cl)c1)c1c[nH]c2ccccc2c1=O` stands 157; under `Cc1ccc(NC(=O)c2cn(C)c3ccccc3c2=O)cc1C`, 19.6.

The target in a further data set is T1, Amine oxidase [flavin-containing] B. Briefly: Inhibition of recombinant human MAOB using kynuramine as substrate measured for 30 mins by fluorescence spectrophotometric assay.
Conditions: not given
As to `Cn1cc(C(=O)Nc2ccc(Cl)c(Cl)c2)c(=O)c2ccccc21`, the 50% inhibitory concentration (IC50) stood at 5.3 µM.
Take `Cn1cc(C(=O)Nc2cccc(Cl)c2)c(=O)c2ccccc21`: the IC50 came to 29 µM.
Turning to `O=C(Nc1ccc(Cl)c(Cl)c1)c1c[nH]c2ccccc2c1=O`, the IC50 was determined as 11.1 µM.
As for `Cc1ccc(NC(=O)c2cn(C)c3ccccc3c2=O)cc1C`, the IC50 amounted to 82.3 µM.

For a further data set, the system named is SH-SY5Y. Briefly: Cytotoxicity against differentiated human SH-SY5Y cells assessed as cell viability at 1 to 10 uM after 24 hrs by neutral red uptake assay relative to control. Format: cell-based. Conditions: dose 1-10 µM.
Turning to `Cn1cc(C(=O)Nc2ccc(Cl)c(Cl)c2)c(=O)c2ccccc21`, the Activity result is “Non-Toxic”.
The same measure, in the same setting: the value for `Cn1cc(C(=O)Nc2cccc(Cl)c2)c(=O)c2ccccc21` was “Non-Toxic”; that for `O=C(Nc1ccc(Cl)c(Cl)c1)c1c[nH]c2ccccc2c1=O` was “Non-Toxic”.
Turning to `Cc1ccc(NC(=O)c2cn(C)c3ccccc3c2=O)cc1C`, the Activity result is given as “Non-Toxic”.

The target of the next data set is T2, Amine oxidase [flavin-containing] A (Homo sapiens, UniProt P21397).
T2 sequence (P21397 whole entry): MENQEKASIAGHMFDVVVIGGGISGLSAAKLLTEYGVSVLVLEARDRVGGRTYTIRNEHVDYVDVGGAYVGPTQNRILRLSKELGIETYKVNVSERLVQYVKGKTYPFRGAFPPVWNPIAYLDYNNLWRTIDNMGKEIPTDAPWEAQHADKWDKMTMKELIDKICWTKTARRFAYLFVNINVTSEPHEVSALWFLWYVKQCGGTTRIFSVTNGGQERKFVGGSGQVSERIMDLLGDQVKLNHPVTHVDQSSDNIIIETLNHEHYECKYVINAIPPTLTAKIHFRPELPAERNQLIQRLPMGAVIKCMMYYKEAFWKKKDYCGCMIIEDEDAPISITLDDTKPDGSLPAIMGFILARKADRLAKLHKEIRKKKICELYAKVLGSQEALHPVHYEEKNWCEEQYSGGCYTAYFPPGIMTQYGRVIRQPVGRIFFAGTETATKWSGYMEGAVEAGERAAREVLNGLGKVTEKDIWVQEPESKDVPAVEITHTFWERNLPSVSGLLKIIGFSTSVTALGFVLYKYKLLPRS
Briefly: Inhibition of recombinant human MAOA using kynuramine as substrate at 10 uM measured for 30 mins by fluorescence spectrophotometric assay relative to control. To be noted: 0.5 h.
For `Cn1cc(C(=O)Nc2ccc(Cl)c(Cl)c2)c(=O)c2ccccc21`, the inhibition at 10 µM came out at 38%.
Same read-out and setting: under `Cc1ccc(NC(=O)c2c[nH]c3ccccc3c2=O)cc1C` stands 15%; under `O=C(Nc1cccc(Cl)c1)c1c[nH]c2ccccc2c1=O`, 8%.

The next data set addresses T2, Amine oxidase [flavin-containing] A. Briefly: Inhibition of recombinant human MAOA using kynuramine as substrate measured for 30 mins by fluorescence spectrophotometric assay.
Conditions: not given
With `Cn1cc(C(=O)Nc2cccc(Cl)c2)c(=O)c2ccccc21`, the IC50 was found to be 7480 µM.
On to `O=C(Nc1ccc(Cl)c(Cl)c1)c1c[nH]c2ccccc2c1=O`, for which the IC50 amounted to 1740 µM.
Turning to `Cc1ccc(NC(=O)c2cn(C)c3ccccc3c2=O)cc1C`, the IC50 came out at 1160 µM.

A word on the inhibition: it is the percentage by which the read-out fell short of the control. Broadly, the IC50 is the point on the concentration scale where inhibition reaches its midpoint.
